Reference: patent publication US9555049B2, “Arene ruthenium (II) derivatives containing iminophosphorane ligands and their use in cancer therapy” (Research Foundation of the City University of New York, priority 2014, dated 2017)

Assays:
plasmid pBR322 DNA = experiment: Plasmid (pBR322) DNA electrophoresis (mobility shift assay); format: binding; conditions: 37° C., twenty hours, Tris/HCl buffer, up to drug/DNA ratio 2.0
Protocol: For these experiments, cisplatin, all uncoordinated ligands, and the starting dimeric organometallic ruthenium (II) complex [Ru(η^6-p-cymene)Cl]2 were also measured as controls. Plasmid pBR322 presents two main forms, OC (open circular or relaxed) and CCC (covalently closed or supercoiled), which display different electrophoretic mobility. Changes in the electrophoretic mobility of any of the forms upon incubation of the plasmid with a compound are usually interpreted as evidence of interaction. Generally, a drug that induces unwinding of the CCC form will produce a retardation of the electrophoretic mobility, while coiling of the OC form will result in increased mobility.
10 μL aliquots of pBR322 plasmid DNA (20 μg/mL) in buffer (5 mM Tris/HCl, 50 mM NaClO4, pH=7.39) were incubated with different concentrations of the compounds (1-4, 8, 9, [(η^6-p-cymene)Ru(μ-Cl)Cl]2) (in the range 0.25 and 4.0 metal complex:DNAbp) at 37° C. for 20 h in the dark. Samples of free DNA and cisplatin-DNA were prepared as controls. After the incubation period, the samples were loaded onto the 1% agarose gel. The samples were separated by electrophoresis for 1.5 h at 80 V in Tris-acetate/EDTA buffer (TAE). Afterwards, the gel was stained for 30 min. with a solution of GelRed Nucleic Acid stain.

prostate DU-145 = experiment: MTT toxicity assay, DU-145; format: cell-based, human; conditions: 24 h incubation, mean ± SD (n = 4)
Protocol: (§1) Compounds were added at different concentrations in triplicate.

[1] = system: non-tumorigenic human embryonic kidney cells HEK293T; experiment: MTT toxicity assay, HEK-293T; format: cell-based; conditions: 24 h incubation, mean ± SD (n = 4)
Protocol: In order to assess the compounds' selectivity for cancerous cells with respect to normal cell lines, the compounds were also screened for their antiproliferative effects on the non-tumorigenic human embryonic kidney cells HEK293T.
(§2) A549 (lung carcinoma), MiaPaca2 (pancreatic carcinoma), MDA-MB-231 (Triple negative breast carcinoma) and 293T (non-tumoral embryonic kidney cells) were cultured in DMEM medium supplemented with 10% FCS, L-glutamine and penicillin/streptomycin. Media for A549 cells were also supplemented with 2.2 g/l Na2CO3, 100 μg/ml pyruvate and 5 ml non-essential amino acids (Invitrogen). All these media will be referred as ‘complete medium’ hereinafter. Cell cultures were maintained in a humidified atmosphere of 95% air/5% CO2 at 37° C.
(§3) For toxicity assays cells (5×10^4 for Jurkat cells and 10^4 for adherent cell lines) were seeded in flat-bottom 96-well plates (100 μl/well) in complete medium. Adherent cells were allowed to attach for 24 h prior to addition of cisplatin or tested compounds. Compounds were added at different concentrations in triplicate. Cells were incubated with cisplatin or compounds for 24 h and then cell proliferation was determined by a modification of the MTT-reduction method. […] Finally, formazan crystal was dissolved by adding 100 μl/well ^iPrOH (0.05 M HCl) and gently shaking. The optical density was measured at 570 nm using a 96-well multiscanner autoreader (ELISA). In some experiments total cell number and cell viability were determined by the Trypan-blue exclusion test.

leukemia Jurkat-T = experiment: MTT toxicity assay, Jurkat; format: cell-based, human; conditions: 24 h incubation, mean ± SD (n = 4)
Protocol: as §1

[2] = system: human renal proximal tubular cells (RPTC); experiment: XTT assay for RPTC cells; format: cell-based; conditions: XTT assay 24 hours
Protocol: Renal proximal tubular cells in primary culture have been described as an in vitro model to study nephrotoxicity.
The human Renal Proximal Tubule Cells (RPTC) a non-tumoral human kidney epithelial cell line (obtained from Lifeline Cell Technology, Frederick, Md., USA) were cultured in Lifeline's RenaLife Medium containing RenaLife LifeFactors with 2.4 mM L-Glutamine, 5 Î¼ g/mL rh insulin, 1.0 Î¼M epinephrine, 10 nM triiodothyronine, 0.1 Î¼ g/mL hydrocortisone hemisuccinate, 10 ng/mL rh EGF, 0.5% FBS and 5 Î¼ g/m transferrin PS (all from Lifeline Cell Technology), at 37° C. in a humidified atmosphere of 95% of air and 5% CO2 (University of Hawaii Cancer Center, Honolulu, Hi., USA). For evaluation of cell viability, cells were seeded at a concentration of 5×10^3 cells/well in 90 μl Lifeline's RenaLife complete medium into tissue culture grade 96-well flat bottom microplates (Thermo Scientific BioLite Microwell Plate, Fisher Scientific, Waltham, Mass., USA) and grown for 24 h. […] The optical density of each well (96-well plates) was quantified using EnVision Multilabel Plate Readers (Perkin Elmer, Waltham Mass., USA) at 450 nm wavelength to measure absorbance. The percentage of surviving cells was calculated from the ratio of absorbance of treated to untreated cells. […]

[3] = system: triple negative breast MDA-MB-231; experiment: MTT toxicity assay, MDA-MB-231; conditions: read-out: IC50 MDA-MB-231, 24 h incubation, mean ± SD (n = 4)
Protocol: Cytotoxic activity of the compounds was determined in some human cancer cell lines: leukemia Jurkat-T, lung A549, prostate DU-145, pancreas MiaPaca2, and triple negative breast MDA-MB-231, in comparison to cisplatin.
as §2, §3

pancreas MiaPaca2 = experiment: MTT toxicity assay, MiaPaca2; format: cell-based, human; conditions: 24 h incubation, mean ± SD (n = 4)
Protocol: as §1

lung A549 = experiment: MTT toxicity assay, A549; format: cell-based, human; conditions: 24 h incubation, mean ± SD (n = 4)
Protocol: as §1

Solubility = conditions: 1:99 DMSO:H2O
[4] = Stability in solution by 31P and 1H NMR; air stability; format: physicochemical
Protocol: The stability of the water-soluble complexes was studied by ^31P {^1H} and ^1H NMR spectroscopy in D2O. […] However, as explained elsewhere in this specification, the biological activity of compound 2 is very fast (in 8 hours compound 2 induces 80% of apoptosis on Jurkat cells). Thus, without wishing to be bound to any particular theory, the observed biological activity is believed to mainly come from coordination compound 2 or its hydrolysis product.

[5] = molecular target: Human serum albumin (HSA) (Homo sapiens, UniProt P02768); experiment: Interaction with HSA by fluorescence spectroscopy (Stern-Volmer); format: binding; conditions: HSA 10 μM, phosphate buffer pH 7.4
Human serum albumin (HSA), sequence (P02768 25-609): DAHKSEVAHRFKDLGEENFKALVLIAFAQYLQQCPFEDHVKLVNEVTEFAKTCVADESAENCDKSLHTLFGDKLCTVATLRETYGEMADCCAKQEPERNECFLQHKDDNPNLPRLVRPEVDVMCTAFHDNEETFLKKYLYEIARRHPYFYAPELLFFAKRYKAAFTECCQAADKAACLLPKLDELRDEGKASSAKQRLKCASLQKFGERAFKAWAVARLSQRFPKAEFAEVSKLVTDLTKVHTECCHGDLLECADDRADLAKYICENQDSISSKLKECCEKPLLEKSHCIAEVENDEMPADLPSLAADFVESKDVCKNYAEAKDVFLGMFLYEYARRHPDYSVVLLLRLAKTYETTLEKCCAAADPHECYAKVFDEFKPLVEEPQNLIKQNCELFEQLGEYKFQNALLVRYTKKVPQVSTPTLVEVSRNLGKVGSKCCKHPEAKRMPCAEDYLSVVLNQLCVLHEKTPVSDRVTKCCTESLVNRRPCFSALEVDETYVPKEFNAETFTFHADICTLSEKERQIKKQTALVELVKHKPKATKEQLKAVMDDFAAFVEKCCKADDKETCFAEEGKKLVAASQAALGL
Protocol: The fluorescence data was analyzed by the Stern-Volmer equation.
A solution of each compound (8 mM) in DMSO was prepared and ten aliquots of 2.5 μL were added successively to a solution of HSA (10 μM) in phosphate buffer (pH=7.4) to achieve final metal complex concentrations in the range 10-100 μM. The excitation wavelength was set to 295 nm, and the emission spectra of HSA samples were recorded at room temperature in the range of 300 to 450 nm. The fluorescence intensities of all the metal compounds, the buffer and the DMSO are negligible under these conditions. The fluorescence was measured 240 s. after each addition of compound solution. The data were analyzed using the classical Stern-Volmer equation F0/F=1+KSV[Q].

human cell lines = experiment: MTT toxicity assay, all tested human cell lines; format: cell-based; conditions: 24 h incubation
Protocol: as §1

CT DNA = experiment: DNA precipitation and quantification of ruthenium by ICP-MS; format: binding, calf; design: unit not given here
Protocol: In this experiment, 500 μM concentration DNA solutions were treated with 2 equiv of ruthenium compound 2 and compound 3 for twenty hours at 37° C. to promote DNA precipitation. The samples were then centrifuged, and the resulting pellets were analyzed for DNA and metal concentration.
Stock solutions of compounds 2 and 3 (4 mM in water) and CT DNA (11.56 mM in 5 mM Tris/HCl, 50 mM NaClO4, pH=7.39) were freshly prepared prior to use. 216 μl of DNA stock solution were diluted in 3.53 mL of buffer and 1.25 mL of compound stock solution were then added to achieve 5 mL final volume at concentrations of 500 μM in DNA and 1 mM in metal compound. Each sample was incubated at 37° C. for a period of 20 h, then cooled down to room temperature and centrifuged at 3000 rpm for 15 min. and at 4000 rpm for extra 40 min. The supernatant was separated and analyzed for CT DNA concentration by CD spectroscopy. The resulting pellet was washed twice with ice-cold ethanol (1 mL), centrifuged at RT for 1 min. at 4000 rpm, dried under high vacuum and analyzed for Ru content by ICP-MS. The total amount of DNA in each sample was 0.92 mg. Every experiment was run in duplicate.

Jurkat cells = experiment: Cell death analysis (PS exposure, mitochondrial membrane potential, Hoechst) in Jurkat cells
Protocol: The mechanism of cell death induced by compound 2 and compound 3 was explored in Jurkat cells. Nuclei morphology after twenty-four hour incubation with 1 μM solution of compound 2 or compound 3 was analyzed by Hoechst staining. […] Other apoptotic parameters such as phosphatidylserine exposure and mitochondrial membrane potential dissipation were analyzed using fluorescent probes.
To determine whether caspase inhibition prevented or just delayed cell death, experiments were performed in which cells were treated with compound 2 or compound 3 for twenty-four hours in the presence of z-VAD-fmk and then washed and further cultured in fresh medium for twenty-four hours (FIG. 6). PS exposure was analyzed after the first twenty-four hours in the presence of compound+z-VAD-fmk and twenty-four hours after washing.
Apoptosis/necrosis hallmarks of cells treated with compounds 2 and 3 were analyzed by measuring mitochondrial membrane potential and/or exposure of phosphatidylserine. In some experiments the general caspase inhibitor z-VAD-fmk was added at 50 μM 1 h before compounds. For mitochondrial membrane potential determination cells (2.5×10^5 in 200 μl) after treatment with compounds were incubated at 37° C. for 15 min. in ABB (140 mM NaCl, 2.5 mM CaCl2, 10 mM Hepes/NaOH, pH 7.4) containing 60 mM tetramethylrhodamine ethyl ester (TMRE, Molecular Probes). Phosphatidylserine exposure was quantified by labeling cells with AnnexinV-PE or AnnexinV-DY636 (Invitrogen) after treatment with compounds. AnnexinV was added at a concentration of 0.5 μg/mL and cells were incubated at room temperature for 15 min. In all cases, cells were diluted to 1 ml with ABB to be analyzed by flow cytometry (FACScan, BD Bioscience, Spain).

[6] = Jurkat cells, general caspase inhibitor z-VAD-fmk

Compound | electrophoretic mobility of plasmid pBR322 DNA (plasmid pBR322 DNA) | IC50 (prostate DU-145) [µM] | IC50 [1] [µM] | IC50 (leukemia Jurkat-T) [µM] | IC50 [2] [µM] | IC50 [3] [µM] | IC50 (pancreas MiaPaca2) [µM] | IC50 (lung A549) [µM] | solubility in DMSO:H2O mixtures (Solubility) | stability in d^6-DMSO solution [4] | Stern-Volmer constant [5] [M⁻¹] | stability in D2O (NMR spectra) [4] | IC50 (human cell lines) [µM] | ruthenium content in DNA precipitate (CT DNA) | AnnexinV+ cells, compound + z-VAD-fmk (Jurkat cells; 24 h with compound + z-VAD-fmk, then 24 h in fresh medium after washing) [%] | PS exposure with z-VAD-fmk (Jurkat cells; [6]) | Δψm loss with z-VAD-fmk (Jurkat cells; [6]) [%] | Δψm loss (Jurkat cells; Jurkat cells, without z-VAD-fmk) [%] | Nuclei morphology (Hoechst staining) (Jurkat cells; Jurkat, 24 h incubation with 1 μM solution) | AnnexinV+ cells, compound alone for twenty-four hours (Jurkat cells; compound alone, 24 h) [%]
N.N.[Cl][Pt][Cl] [Cisplatin, reference compound] | able to both increase and decrease the mobility of the OC and the CCC forms | 112 ± 33 | 69 ± 6.7 | 10.8 ± 1.2 | 46.4 ± 2.46 | 131 ± 18 | 76.5 ± 7.4 | 114 ± 9.1 |  |  |  |  |  |  |  |  |  |  |  | 
Cc1ccc(C(C)C)cc1.O=C(N=P12CN3CN(CN(C3)C1)C2)c1cccc[c]1[Ru][Cl] [Compound 9, [(η^6-p-cymene)Ru{(PTA═N—CO-2-C6H4)-κ-C,N}Cl]] |  | 126 ± 28 | 142 ± 13.1 | 17.7 ± 7.5 |  | 75.4 ± 9.8 | 54.5 ± 16 | > 125 | soluble in mixtures 1:99 DMSO:H2O in micromolar concentrations |  |  |  |  |  |  |  |  |  |  | 
[(η^6-p-cymene)Ru((Ph3P═N—CO-2-C6H4)-κ-C,N)Cl] [Compound 8] |  | 14.2 ± 4.2 | 4.1 ± 0.06 | 2.39 ± 0.27 |  | 7.1 ± 0.11 | 8.2 ± 0.98 | 29.9 ± 5.8 | soluble in mixtures 1:99 DMSO:H2O in micromolar concentrations | stable for weeks | 18100 |  |  |  |  |  |  |  |  | 
[(η^6-p-cymene)Ru([{Cp—P(Ph2)═N—CH2-2-NC5H4}Fe(Cp)]-κ-N,N)Cl]Cl [Compound 4] | no mobility retardation is observed | 148 ± 33 | 114 ± 14.8 | 9.3 ± 0.07 |  | > 125 | > 125 | > 125 |  | stable for weeks |  | does not change for over three days |  |  |  |  |  |  |  | 
[(η^6-p-cymene)Ru(μ-Cl)Cl]2 |  |  |  |  |  |  |  |  |  |  |  |  | > 125 |  |  |  |  |  |  | 
[(η^6-p-cymene)Ru{(Ph3P═N-8-C9H6N)-κ-N,N}Cl]Cl [Compound 3] | no mobility retardation is observed | 6.6 ± 0.85 | 2.2 ± 1.1 | 0.9 ± 0.32 |  | 16.2 ± 0.9 | 7 ± 0.4 | 43.3 ± 8 |  | stable for weeks |  | does not change significantly over time |  | 2.43±0.18 | 32 | completely abrogated | 20 | 40 | chromatin condensation and fragmentation | 28
[(η^6-p-cymene)Ru{(Ph3P═N—CO-2-N—C5H4)-κ-N,O}Cl](PF6) [Compound 1] | induce retardation of the mobility of the CCC form | 1.89 ± 0.64 | 2.8 ± 0.2 | 1.1 ± 0.14 |  | 4.91 ± 2.7 | 2.4 ± 0.18 | 9.9 ± 1.9 |  | stable for weeks |  |  |  |  |  |  |  |  |  | 
